Data reported in patent US20200404919A1, “USE OF HETEROARYL-TRIAZOLE AND HETEROARYL-TETRAZOLE COMPOUNDS AS PESTICIDES IN PLANT PROTECTION” (Bayer Aktiengesellschaft, priority 2018, published 2020).

Experiments:
Assay type in all cases: in vivo
[1] = tested on: Myzus persicae; experiment: Myzus persicae - oral test; conditions: 120 h, read-out: mortality in %
Protocol: To produce a suitable preparation of active compound, 1 part by weight of active compound is mixed with the stated amount of solvent, and the concentrate is diluted with water to the desired concentration. 50 μl compound solution is filled in microtiter plates and 150 μl IPL41 insect medium (33%+15% sugar) is added to obtain a total volume of 200 μl per well. Afterwards the plates are sealed with parafilm through which a mixed population of the green peach aphid (Myzus persicae) can suck on the compound preparation.
(§1) After 5 days mortality in % is determined. 100% means all aphids have been killed and 0% means none of the aphids have been killed.

[2] = tested on: Nilaparvata lugens; experiment: Nilaparvata lugens - spray test 1; conditions: in Oryza sativa, 96 h, read-out: mortality in %, 500 g/ha, rice plants, after 4 days
Protocol: Nilaparvata lugens—Spray Test 1
(§2) To produce a suitable preparation of active compound, 1 part by weight of active compound is mixed with the stated amount of solvents and is diluted with water, containing an emulsifier concentration of 1000 ppm, to the desired concentration. Further test concentrations are prepared by dilution with emulsifier containing water.
Rice plants (Oryza sativa) are sprayed with a preparation of the active ingredient of the desired concentration and the plants are infested with the brown planthopper (Nilaparvata lugens).
After 4 days mortality in % is determined. 100% means all planthoppers have been killed and 0% means none of the planthoppers have been killed.

[3] = tested on: Aphis gossypii; experiment: Aphis gossypii - oral test; conditions: 120 h, read-out: mortality in %
Protocol: Solvent: 100 parts by weight acetone
To produce a suitable preparation of active compound, 1 part by weight of active compound is mixed with the stated amount of solvent, and the concentrate is diluted with water to the desired concentration.
50 μl compound solution is filled in microtiter plates and 150 μl IPL41 insect medium (33%+15% sugar) is added to obtain a total volume of 200 μl per well. Afterwards the plates are sealed with parafilm through which a mixed population of the cotton aphid (Aphis gossypii) can suck on the compound preparation.
as §1

[4] = tested on: Diabrotica balteata; experiment: Diabrotica balteata - spray test; conditions: 168 h, 160 μg/well, germinated wheat seeds, larvae, after 7 days, read-out: efficacy in %
Protocol: Diabrotica balteata—Spray Test
as §2, with “solvent,” for “solvents”, “and the concentrate” for “and”
Soaked wheat seeds (Triticum aestivum) are placed in a multiple well plate filled with agar and some water and are incubated for 1 day to germinate (5 seeds per well). The germinated wheat seeds are sprayed with a test solution containing the desired concentration of the active ingredient. Afterwards each unit is infected with 10-20 larvae of the banded cucumber beetle (Diabrotica balteata).
After 7 days efficacy in % is determined. 100% means all the seedlings have grown up like in the untreated, uninfected control; 0% means none of the seedlings have grown.

[5] = tested on: Phaedon cochleariae; experiment: Phaedon cochleariae - spray test; conditions: in Brassica rapa, foliar, 168 h, read-out: mortality in %
Protocol: Phaedon cochleariae—Spray Test
as §2
Chinese cabbage (Brassica pekinensis) leaf disks are sprayed with a preparation of the active ingredient of the desired concentration. Once dry, the leaf disks are infested with mustard beetle larvae (Phaedon cochleariae).
After 7 days mortality in % is determined. 100% means all beetle larvae have been killed and 0% means none of the beetle larvae have been killed.

[6] = tested on: Spodoptera frugiperda; experiment: Spodoptera frugiperda - spray test; conditions: in Zea mays, 168 h, read-out: mortality in %
Protocol: Spodoptera frugiperda—Spray Test
as §2
Maize (Zea mays) leaf sections are sprayed with a preparation of the active ingredient of the desired concentration. Once dry, the leaf sections are infested with fall armyworm larvae (Spodoptera frugiperda).
After 7 days mortality in % is determined. 100% means all caterpillars have been killed and 0% means none of the caterpillars have been killed.

[7] = tested on: Nezara viridula; experiment: Nezara viridula - spray test 1; conditions: in Hordeum vulgare, 96 h, read-out: mortality in %
Protocol: Nezara viridula—Spray Test 1
as §2, with “solvent,” for “solvents”, “and the concentrate” for “and”
Barley plants (Hordeum vulgare) infested with larvae of the southern green stink bug (Nezara viridula) are sprayed with a test solution containing the desired concentration of the active ingredient.
After 4 days mortality in % is determined. 100% means all the stink bugs have been killed; 0% means none of the stink bugs have been killed.

Row | SMILES | mortality at 20 ppm [1] [%] | mortality at 500 g/ha [2] [%] | mortality at 100 ppm [3] [%] | pest or weed control at 160 µg/disc, 160 µg/well [4] [%] | mortality at 500 g/ha [5] [%] | mortality at 500 g/ha [6] [%] | mortality at 500 g/ha [7] [%]
1 | CC(c1ncnn1-c1ncccn1)N(CCC(F)(F)F)C(=O)c1cc(Cl)cc(C(F)(F)F)c1 (stereo not shown) [Compound I-26, 3-chloro-N-[1-(2-pyrimidin-2-yl-1,2,4-triazol-3-yl)ethyl]-5-(trifluoromethyl)-N-(3,3,3-trifluoropropyl)benzamide] | 100 | 90 | 100 | 100 | 100 | 100 | –
2 | CC(c1ncnn1-c1ncccn1)N(CC1CC1)C(=O)c1cncc(C(F)(F)F)c1 (stereo not shown) [Compound I-28, N-(cyclopropylmethyl)-N-[1-(2-pyrimidin-2-yl-1,2,4-triazol-3-yl)ethyl]-5-(trifluoromethyl)pyridine-3-carboxamide] | 100 | 100 | 100 | 100 | 100 | – | 100
3 | CC(c1ncnn1-c1ncccn1)N(CC1CC1)C(=O)c1cc(C#N)cc(C(F)(F)F)c1 (stereo not shown) [Compound I-50, 3-cyano-N-(cyclopropylmethyl)-N-[1-(2-pyrimidin-2-yl-1,2,4-triazol-3-yl)ethyl]-5-(trifluoromethyl)benzamide] | 100 | – | 100 | 100 | 100 | 100 | 100
4 | CC(NC(=O)c1cccc(C#N)c1)c1ncnn1-c1ncccn1 (stereo not shown) [Compound I-52] | 90 | 100 | 100 | – | 100 | – | 100
5 | CC(c1ncnn1-c1ccc(Cl)cn1)N(CC1CC1)C(=O)c1cc(Cl)cc(C(F)(F)F)c1 (stereo not shown) [Compound I-84, 3-chloro-N-[1-[2-(5-chloro-2-pyridyl)-1,2,4-triazol-3-yl]ethyl]-N-(cyclopropylmethyl)-5-(trifluoromethyl)benzamide] | 100 | – | – | 100 | 100 | 100 | 100
6 | CC(c1ncnn1-c1cccnc1)N(CC1CC1)C(=O)c1cc(Cl)cc(C(F)(F)F)c1 (stereo not shown) [Compound I-85] | 100 | – | 100 | 100 | – | – | –
7 | CC(c1ncnn1-c1cccc(Cl)n1)N(CC1CC1)C(=O)c1cc(Cl)cc(C(F)(F)F)c1 (stereo not shown) [Compound I-87] | – | – | – | 100 | – | – | –
8 | CC(c1ncnn1-c1ncccn1)N(CC1CC1)C(=O)c1cncc(SC(F)(F)F)c1 (stereo not shown) [Compound I-90] | 100 | – | 100 | – | 100 | – | –
9 | CC(c1ncnn1-c1ncc(Br)cn1)N(CC1CC1)C(=O)c1cc(Cl)cc(C(F)(F)F)c1 (stereo not shown) [Compound I-92, N-[1-[2-(5-bromopyrimidin-2-yl)-1,2,4-triazol-3-yl]ethyl]-3-chloro-N-(cyclopropylmethyl)-5-(trifluoromethyl)benzamide] | 100 | – | 100 | 100 | 100 | 100 | –
10 | CC(c1ncnn1-c1ccncc1)N(CC1CC1)C(=O)c1cc(Cl)cc(C(F)(F)F)c1 (stereo not shown) [Compound I-94] | 100 | – | 100 | 100 | – | – | –
11 | CC(c1ncnn1-c1ncccn1)N(CC1CCC1)C(=O)c1cc(Cl)cc(C(F)(F)F)c1 (stereo not shown) [Compound I-101] | 100 | – | 100 | 100 | – | 100 | –
12 | CC(c1ncnn1-c1ccnc(Cl)c1)N(CC1CC1)C(=O)c1cc(Cl)cc(C(F)(F)F)c1 (stereo not shown) [Compound I-102] | – | – | – | 100 | – | – | –
13 | CC(c1ncnn1-c1cccnn1)N(CC1CC1)C(=O)c1cc(Cl)cc(C(F)(F)F)c1 (stereo not shown) [Compound I-103] | 90 | – | 100 | 100 | 100 | – | –
14 | CC(c1ncnn1-c1ncccn1)N(CC1CC1)C(=O)c1ccc(Cl)c(Cl)c1 (stereo not shown) [Compound I-104] | 100 | – | 90 | 100 | 100 | – | 100
15 | CC(c1ncnn1-c1ccc(Cl)nc1)N(CC1CC1)C(=O)c1cc(Cl)cc(C(F)(F)F)c1 (stereo not shown) [Compound I-105] | – | – | – | 100 | 100 | – | –
16 | CC(c1ncnn1-c1ncccn1)N(CC1COC1)C(=O)c1cc(Cl)cc(C(F)(F)F)c1 (stereo not shown) [Compound I-118] | 100 | – | – | 100 | 83 | 100 | –
17 | C[C@H](NC(=O)c1cc(F)cc(C#N)c1)c1ncnn1-c1ncccn1 [Compound I-128] | – | – | – | 100 | – | – | 100
18 | C[C@H](NC(=O)c1cc(Cl)cc(C(F)(F)F)c1)c1ncnn1-c1ccc(Br)cn1 [Compound I-129, N-[(1S)-1-[2-(5-bromo-2-pyridyl)-1,2,4-triazol-3-yl]ethyl]-3-chloro-5-(trifluoromethyl)benzamide] | – | – | – | 100 | – | 100 | 100
19 | CC(NC(=O)c1cc(Cl)cc(Cl)c1)c1ncnn1-c1ncc(Br)cn1 (stereo not shown) [Compound I-130] | – | – | – | 100 | – | 100 | –
20 | C[C@H](NC(=O)c1cc(Cl)cc(C(F)(F)F)c1)c1nc(C(F)(F)F)nn1-c1ccc(Cl)cn1 [Compound I-131, 3-chloro-N-{(1S)-1-[1-(5-chloropyridin-2-yl)-3-(trifluoromethyl)-1H-1,2,4-triazol-5-yl]ethyl}-5-(trifluoromethyl)benzamide] | – | 100 | – | 80 | – | 100 | 100
21 | C[C@H](NC(=O)c1cc(Cl)cc(C(F)(F)F)c1)c1ncnn1-c1ccc(I)cn1 [Compound I-132, 3-chloro-N-[(1S)-1-[2-(5-iodo-2-pyridyl)-1,2,4-triazol-3-yl]ethyl]-5-(trifluoromethyl)benzamide] | – | – | – | 100 | – | 100 | 100
22 | C[C@H](NC(=O)c1cc(F)c(Cl)c(F)c1)c1ncnn1-c1ncccn1 [Compound I-133] | – | – | – | 100 | – | – | –
23 | C[C@H](NC(=O)c1cncc(C(F)(F)F)c1)c1nc(C(F)(F)F)nn1-c1ccc(Cl)cn1 [Compound I-135] | – | – | – | 100 | – | 100 | –
24 | C[C@H](NC(=O)c1cc(C(F)(F)F)cc(C(F)(F)F)c1)c1nc(C(F)(F)F)nn1-c1ccc(Cl)cn1 [Compound I-136, N-[(1S)-1-[2-(5-chloro-2-pyridyl)-5-(trifluoromethyl)-1,2,4-triazol-3-yl]ethyl]-3,5-bis(trifluoromethyl)benzamide] | – | – | – | 100 | – | 100 | –
25 | C[C@H](NC(=O)c1cc(Cl)cc(Br)c1)c1ncnn1-c1ccc(Cl)cn1 [Compound I-137, 3-bromo-5-chloro-N-[(1S)-1-[2-(5-chloro-2-pyridyl)-1,2,4-triazol-3-yl]ethyl]benzamide] | – | – | – | 100 | – | 100 | 100
